The source of these data is publication PMC6353901, “Systematic characterization of position one variants within the lantibiotic nisin” (Scientific Reports, 2019).

The assay deals with NisP. Put plainly: Leader peptide cleavage of pre-nisin variants by NisP (RP-HPLC). It counts as biochemical, Lactococcus lactis. Conditions: in vitro cleavage of the leader peptide from purified pre-nisin (variant) by purified secreted NisP, overnight at 8 °C, integration of leader peptide peaks. The text has this: Step IV concerns leader peptide cleavage and thereby activation of the purified pre-nisin variants. Here, we used the secreted variant of the natural leader peptidase NisP, by which the leader peptide is cleaved in vitro and the cleavage efficiency (%) can be calculated as recently shown. We used an RP-HPLC set-up to monitor product formation, in which the appearance of the leader peptide in the chromatograms was used to determine the concentration of activated nisin (Supplementary Fig. S3). […] The nisin core peptide eluted at a later retention time of approximately 23 min (Supplementary Fig. S3). […] However, in the case of the I1 mutants I1A, I1G, I1T, I1S, I1K, I1R, I1H, I1Q, I1E, I1N and I1D) the formation of a core peptide peak in terms of a new and separated peak in the chromatogram was not observed (Supplementary Fig. S4). Rather, the peaks with a retention time between 18–21 min contained both species, the cleaved and non-cleaved lantibiotic, and can therefore not be deconvoluted for proper determination of the amount of activated nisin. […] The concentration was calculated based on a standard calibration curve (Supplementary Fig. S5), where we precisely determined the concentration of the activated nisin or I1 mutants. We used this concentration determination instead of the colorimetric protein concentration determination as for example Bradford or the BCA-assay since the latter two assays cannot differentiate between the activated and non-activated form of the secreted variants. Since nisin is not active unless the leader is cleaved off, the determination of the area of the leader peak to calculate the amount of the activated lantibiotic directly relates to the antimicrobial activity without need to further purify the peptide after cleavage.
All I1 mutations were subjected to NisP cleavage and most of the variants were cleaved, but a strong influence of the nature of the I1 substitutions with respect to cleavage efficiency was observed (Supplementary Fig. S6). The cleavage efficiency for wild type pre-nisin A was 94.3 ± 1.7% but lower for the mutants I1M, I1L, I1A and I1V (72.3 ± 1.4%, 72.4 ± 1.3%, 81.0 ± 1.8% and 58.1± 2.8%, respectively). […] This holds especially in those cases, where the amino acid at position one was exchanged to a charged amino acid (e.g. I1K 9.2 ± 1.3%; I1E 9.5 ± 0.7%) or contained a bulky hydrophobic side chain (e.g. I1F 12.9 ± 0.8%; I1W 5.7 ± 0.2%; I1Y 22.6 ± 2.3%) (Supplementary Fig. S6). […] Even after an extensive prolongation of the incubation time, no leader peptide peak was detected in the RP-HPLC chromatogram (Supplementary Fig. S4). It is important to stress in this context that the cleavage efficiencies cannot be determined from Tricine-SDS gels (20%). Here, the leader peptide as well as the core peptide would co-migrate, which obviously will falsify the staining results.
Pre-nisin and its variants were expressed and purified as previously described[41],[49],[69]. The purity of pre-nisin and its variants was controlled by Tricine-SDS-PAGE (20%)[70]. The activation of all variants was performed by NisP cleavage overnight at 8 °C. Pre-nisin cleavage and its variants was monitored by RP-HPLC[49],[69].
Pre-nisin and the activated nisin variants were analysed by RP-HPLC (Agilent Technologies 1260 Infinity II) with a LiChrospher WP 300 RP-18 end-capped column and an acetonitrile/water solvent system. The cleavage efficiency and the concentration of active lantibiotic was calculated as described previously[49],[69].

As for `C=C(NC(=O)[C@@H](NC(=O)[C@H](Cc1c[nH]cn1)NC(=O)[C@@H](NC(=O)[C@H](CO)NC(=O)[C@@H]1CS[C@@H](C)[C@H]2NC(=O)[C@H](C)NC(=O)[C@H](NC(=O)[C@H](CCCCN)NC(=O)[C@H](CCSC)NC(=O)[C@H](CC(N)=O)NC(=O)[C@@H]3CS[C@@H](C)[C@@H](NC(=O)[C@H](CCCCN)NC(=O)[C@@H]4CS[C@@H](C)[C@@H](NC(=O)[C@@H]5CSC[C@@H](NC(=O)/C(=C/C)NC(=O)[C@@H](N)CCCCN)C(=O)N[C@@H]([C@@H](C)CC)C(=O)NC(=C)C(=O)N[C@@H](CC(C)C)C(=O)N5)C(=O)N5CCC[C@H]5C(=O)NCC(=O)N4)C(=O)NCC(=O)N[C@@H](C)C(=O)N[C@@H](CC(C)C)C(=O)N[C@@H](CCSC)C(=O)NCC(=O)N3)[C@H](C)SC[C@H](NC2=O)C(=O)N[C@@H](Cc2c[nH]cn2)C(=O)N1)[C@@H](C)CC)C(C)C)C(=O)N[C@@H](CCCCN)C(=O)O` [I1K], the “cleavage efficiency by NisP” value turned out to be 9.2 ± 1.3%.

With `C=C(NC(=O)[C@@H](NC(=O)[C@H](Cc1c[nH]cn1)NC(=O)[C@@H](NC(=O)[C@H](CO)NC(=O)[C@@H]1CS[C@@H](C)[C@H]2NC(=O)[C@H](C)NC(=O)[C@H](NC(=O)[C@H](CCCCN)NC(=O)[C@H](CCSC)NC(=O)[C@H](CC(N)=O)NC(=O)[C@@H]3CS[C@@H](C)[C@@H](NC(=O)[C@H](CCCCN)NC(=O)[C@@H]4CS[C@@H](C)[C@@H](NC(=O)[C@@H]5CSC[C@@H](NC(=O)/C(=C/C)NC(=O)[C@@H](N)Cc6ccc(O)cc6)C(=O)N[C@@H]([C@@H](C)CC)C(=O)NC(=C)C(=O)N[C@@H](CC(C)C)C(=O)N5)C(=O)N5CCC[C@H]5C(=O)NCC(=O)N4)C(=O)NCC(=O)N[C@@H](C)C(=O)N[C@@H](CC(C)C)C(=O)N[C@@H](CCSC)C(=O)NCC(=O)N3)[C@H](C)SC[C@H](NC2=O)C(=O)N[C@@H](Cc2c[nH]cn2)C(=O)N1)[C@@H](C)CC)C(C)C)C(=O)N[C@@H](CCCCN)C(=O)O` [I1Y], the “cleavage efficiency by NisP” value turned out to be 22.6 ± 2.3%.

Turning to `C=C(NC(=O)[C@@H](NC(=O)[C@H](Cc1c[nH]cn1)NC(=O)[C@@H](NC(=O)[C@H](CO)NC(=O)[C@@H]1CS[C@@H](C)[C@H]2NC(=O)[C@H](C)NC(=O)[C@H](NC(=O)[C@H](CCCCN)NC(=O)[C@H](CCSC)NC(=O)[C@H](CC(N)=O)NC(=O)[C@@H]3CS[C@@H](C)[C@@H](NC(=O)[C@H](CCCCN)NC(=O)[C@@H]4CS[C@@H](C)[C@@H](NC(=O)[C@@H]5CSC[C@@H](NC(=O)/C(=C/C)NC(=O)[C@@H](N)C(C)C)C(=O)N[C@@H]([C@@H](C)CC)C(=O)NC(=C)C(=O)N[C@@H](CC(C)C)C(=O)N5)C(=O)N5CCC[C@H]5C(=O)NCC(=O)N4)C(=O)NCC(=O)N[C@@H](C)C(=O)N[C@@H](CC(C)C)C(=O)N[C@@H](CCSC)C(=O)NCC(=O)N3)[C@H](C)SC[C@H](NC2=O)C(=O)N[C@@H](Cc2c[nH]cn2)C(=O)N1)[C@@H](C)CC)C(C)C)C(=O)N[C@@H](CCCCN)C(=O)O` [I1V], the “cleavage efficiency by NisP” value is reported as 58.1± 2.8%.

Take `C=C(NC(=O)[C@@H](NC(=O)[C@H](Cc1c[nH]cn1)NC(=O)[C@@H](NC(=O)[C@H](CO)NC(=O)[C@@H]1CS[C@@H](C)[C@H]2NC(=O)[C@H](C)NC(=O)[C@H](NC(=O)[C@H](CCCCN)NC(=O)[C@H](CCSC)NC(=O)[C@H](CC(N)=O)NC(=O)[C@@H]3CS[C@@H](C)[C@@H](NC(=O)[C@H](CCCCN)NC(=O)[C@@H]4CS[C@@H](C)[C@@H](NC(=O)[C@@H]5CSC[C@@H](NC(=O)/C(=C/C)NC(=O)[C@@H](N)Cc6ccccc6)C(=O)N[C@@H]([C@@H](C)CC)C(=O)NC(=C)C(=O)N[C@@H](CC(C)C)C(=O)N5)C(=O)N5CCC[C@H]5C(=O)NCC(=O)N4)C(=O)NCC(=O)N[C@@H](C)C(=O)N[C@@H](CC(C)C)C(=O)N[C@@H](CCSC)C(=O)NCC(=O)N3)[C@H](C)SC[C@H](NC2=O)C(=O)N[C@@H](Cc2c[nH]cn2)C(=O)N1)[C@@H](C)CC)C(C)C)C(=O)N[C@@H](CCCCN)C(=O)O` [I1F]: the “cleavage efficiency by NisP” value stood at 12.9 ± 0.8%.

Turning to `C=C(NC(=O)[C@@H](NC(=O)[C@H](Cc1c[nH]cn1)NC(=O)[C@@H](NC(=O)[C@H](CO)NC(=O)[C@@H]1CS[C@@H](C)[C@H]2NC(=O)[C@H](C)NC(=O)[C@H](NC(=O)[C@H](CCCCN)NC(=O)[C@H](CCSC)NC(=O)[C@H](CC(N)=O)NC(=O)[C@@H]3CS[C@@H](C)[C@@H](NC(=O)[C@H](CCCCN)NC(=O)[C@@H]4CS[C@@H](C)[C@@H](NC(=O)[C@@H]5CSC[C@@H](NC(=O)/C(=C/C)NC(=O)[C@@H](N)Cc6c[nH]c7ccccc67)C(=O)N[C@@H]([C@@H](C)CC)C(=O)NC(=C)C(=O)N[C@@H](CC(C)C)C(=O)N5)C(=O)N5CCC[C@H]5C(=O)NCC(=O)N4)C(=O)NCC(=O)N[C@@H](C)C(=O)N[C@@H](CC(C)C)C(=O)N[C@@H](CCSC)C(=O)NCC(=O)N3)[C@H](C)SC[C@H](NC2=O)C(=O)N[C@@H](Cc2c[nH]cn2)C(=O)N1)[C@@H](C)CC)C(C)C)C(=O)N[C@@H](CCCCN)C(=O)O` [I1W], the “cleavage efficiency by NisP” value came to 5.7 ± 0.2%.

For the compound `C=C(NC(=O)[C@@H](NC(=O)[C@H](Cc1c[nH]cn1)NC(=O)[C@@H](NC(=O)[C@H](CO)NC(=O)[C@@H]1CS[C@@H](C)[C@H]2NC(=O)[C@H](C)NC(=O)[C@H](NC(=O)[C@H](CCCCN)NC(=O)[C@H](CCSC)NC(=O)[C@H](CC(N)=O)NC(=O)[C@@H]3CS[C@@H](C)[C@@H](NC(=O)[C@H](CCCCN)NC(=O)[C@@H]4CS[C@@H](C)[C@@H](NC(=O)[C@@H]5CSC[C@@H](NC(=O)/C(=C/C)NC(=O)[C@@H](N)CCC(=O)O)C(=O)N[C@@H]([C@@H](C)CC)C(=O)NC(=C)C(=O)N[C@@H](CC(C)C)C(=O)N5)C(=O)N5CCC[C@H]5C(=O)NCC(=O)N4)C(=O)NCC(=O)N[C@@H](C)C(=O)N[C@@H](CC(C)C)C(=O)N[C@@H](CCSC)C(=O)NCC(=O)N3)[C@H](C)SC[C@H](NC2=O)C(=O)N[C@@H](Cc2c[nH]cn2)C(=O)N1)[C@@H](C)CC)C(C)C)C(=O)N[C@@H](CCCCN)C(=O)O` [I1E], the “cleavage efficiency by NisP” value was found to be 9.5 ± 0.7%.

Consider `C=C(NC(=O)[C@@H](NC(=O)[C@H](Cc1c[nH]cn1)NC(=O)[C@@H](NC(=O)[C@H](CO)NC(=O)[C@@H]1CS[C@@H](C)[C@H]2NC(=O)[C@H](C)NC(=O)[C@H](NC(=O)[C@H](CCCCN)NC(=O)[C@H](CCSC)NC(=O)[C@H](CC(N)=O)NC(=O)[C@@H]3CS[C@@H](C)[C@@H](NC(=O)[C@H](CCCCN)NC(=O)[C@@H]4CS[C@@H](C)[C@@H](NC(=O)[C@@H]5CSC[C@@H](NC(=O)/C(=C/C)NC(=O)[C@@H](N)CC(C)C)C(=O)N[C@@H]([C@@H](C)CC)C(=O)NC(=C)C(=O)N[C@@H](CC(C)C)C(=O)N5)C(=O)N5CCC[C@H]5C(=O)NCC(=O)N4)C(=O)NCC(=O)N[C@@H](C)C(=O)N[C@@H](CC(C)C)C(=O)N[C@@H](CCSC)C(=O)NCC(=O)N3)[C@H](C)SC[C@H](NC2=O)C(=O)N[C@@H](Cc2c[nH]cn2)C(=O)N1)[C@@H](C)CC)C(C)C)C(=O)N[C@@H](CCCCN)C(=O)O` [I1L], for which the “cleavage efficiency by NisP” value was determined as 72.4 ± 1.3%.
